Here are results for two compounds from patent publication US20070203233A1, “NOVEL 2-(alpha-N-PENTANONYL)BENZOATES, THEIR PREPARATION AND USE” (priority 2004, published 2007).

The term % inhibition denotes how much of the control response was suppressed.

Data set [1] relates to model rats of middle cerebral artery thrombosis (MCAT). Briefly: Effects on neural symptoms of MCAT rats. The format is in vivo, SD rats. More on the design: key to Scores 6 hours / Scores 24 hours: 0/1 per test, summed (max 4); higher = more severe behavioral disorder. The settings on record: for Scores 6 hours: behavioral score 6 h after operation (full mark 4); for Scores 24 hours: behavioral score 24 h after operation (full mark 4); for % inhibition at hour 24: vs. model group. On the procedure: (1) Grouping and administration: […] Preventive administration was conducted by gavage one time per day for 3 days prior to the model being established. The model was established on day 4, and a dosage of one day was administered by gavage immediately after the model was established. Another dosage of one day was again administered by gavage 12 hours after the model was established. Equivalent amount of the vehicle was administered to the control group. […] Description of technique and early neuropathological consequences following middle cerebral artery occlusion. J Cereb Blood Flow Metab, 1981, 1: 53), and fixed in lateral decubitus position. A bowtype incision of 1.5 cm long was made at the midpoint between canthus and exterior auditory canal. Temporalis was broken and incised to expose temporal bone. […] The filter paper was removed after 30 min when the vascular became black. The localized tissue was washed with physiological brine, and sutured layer by layer. Then rats were placed back into the cages. By following the modified method of Bederson et al. […] (2) The animals were placed onto a smooth ground, and the resistance of contralateral shoulder to push was examined. “0” was recorded if the resistance of both shoulders were equal and strong; and “1” was recorded if the resistance of contralateral shoulder to push was decreased. […] (4) The tail of the rat was lifted 30 cm high away from the ground, and “1” was recorded if the animals ceaselessly circled contralaterally. “4” was full mark in accordance with the above-mentioned standard. The higher the score was, more severe the behavioral disorder of the animal was. 4. Results: The behavioral scores in each group were compared by student t test.

For data set [2] the test system is unchanged. The experiment in a line: Effects on cerebral infarct area of MCAT rats. The settings on record: for Cerebral infarct tissue weight/total brain weight (%): 24 h after operation, TTC staining; for Inhibition (%): cerebral infarct vs. model group. The format is in vivo, SD rats.
For data set [3] the following is noted: viscous liquid; cited from earlier work.
Data set [4] in a line: The Stability to Humidity (high humidity test). In kind it is physicochemical. To be noted: 10 days, HPLC purity.
Data set [5] can be described thus: The Stability of Aqueous Solution. The settings on record: aqueous solution 0.2 mg/ml.
Description: Compounds were dissolved in water to form aqueous solutions in a concentration of 0.2 mg/ml, and the amount of decomposed products were measured.
The amounts of decomposed products were determined in accordance with the test described in Pharmacopoeia of P.R. China, 2000 edition, appendix VD of part two, by HPLC method, C18 column, mobile phase of acetonitrile:0.02M sodium dihydrogen phosphate=40:60, detecting wavelength of 230 nm, flow rate of 1 ml/min.

The structures appear in SMILES notation.

As to `CCCCC1OC(=O)c2ccccc21` (racemic) [DL-3-n-butylphthalide], the “Scores 6 hours” value in data set [1] (50 mg/kg by gavage) stood at 3.36 ± 0.81; in data set [1] (100 mg/kg by gavage) it was 3.36 ± 0.50; in data set [1] (200 mg/kg by gavage) it was 3.36 ± 0.67. For the same compound, the “Scores 24 hours” value in data set [1] (50 mg/kg by gavage) was found to be 3.09 ± 0.54; in data set [1] (100 mg/kg by gavage), 3.09 ± 0.70; in data set [1] (200 mg/kg by gavage), 3.00 ± 0.89. For the same compound, the “% inhibition at hour 24” value in data set [1] (50 mg/kg by gavage) stood at 15.11%; in data set [1] (100 mg/kg by gavage), 17.16%; in data set [1] (200 mg/kg by gavage), 19.57%. In addition, the results for the “Cerebral infarct tissue weight/total brain weight (%)” value in data set [2] (50 mg/kg by gavage), in data set [2] (100 mg/kg by gavage) and in data set [2] (200 mg/kg by gavage) were 5.66 ± 2.81%, 5.81 ± 1.49 % and 5.52 ± 1.78 %, respectively. Moreover, the “Inhibition (%)” value is listed as 23.62% in data set [2] (50 mg/kg by gavage), 26.83% in data set [2] (100 mg/kg by gavage) and 27.46% in data set [2] (200 mg/kg by gavage). In addition, the “solubility in water (in words)” value in data set [3] is “insoluble in water”.

As for `CCCCC(O)c1ccccc1C(=O)[O-].[K+]` (stereo not drawn) [Potassium 2-(α-hydroxypentyl)benzoate], the “decomposition after absorbing moisture (in words)” value in data set [4] was “highly decomposed”. For the same compound, the “Scores 6 hours” value in data set [1] (50 mg/kg by gavage) came out at 3.50 ± 0.71; in data set [1] (100 mg/kg by gavage), 3.55 ± 0.52; in data set [1] (200 mg/kg by gavage), 3.45 ± 0.52. Also, the results for the “Scores 24 hours” value in data set [1] (50 mg/kg by gavage), in data set [1] (100 mg/kg by gavage) and in data set [1] (200 mg/kg by gavage) were 3.30 ± 0.48, 3.00 ± 0.89 and 2.73 ± 0.79, respectively. Also, the results for the “Cerebral infarct tissue weight/total brain weight (%)” value in data set [2] (50 mg/kg by gavage), in data set [2] (100 mg/kg by gavage) and in data set [2] (200 mg/kg by gavage) were 6.16 ± 2.46%, 5.73 ± 2.20 % and 5.37 ± 2.00 %, respectively. The results for the “Inhibition (%)” value in data set [2] (50 mg/kg by gavage), in data set [2] (100 mg/kg by gavage) and in data set [2] (200 mg/kg by gavage) were 16.87%, 27.83% and 29.43%, respectively. The “wt % decomposed product” value in data set [5] (0 hr) is given as 0 wt %; in data set [5] (1 hr), 0.2 wt %; in data set [5] (2 hr), 0.36 wt %; in data set [5] (4 hr), 0.75 wt %; in data set [5] (16 hr), 4.5 wt %; in data set [5] (24 hr), 5.3 wt %.
